Assays:
Mus musculus [1] = assay: Antitumor activity was evaluated against L1210 leukemia, injected intravenously at a dose 40 umol/kg; assay type: functional
Mus musculus [2] = assay: Number of survivors/ number of animals tested at the dose of 165 mg/Kg; 6/6; assay type: functional
Mus musculus [3] = assay: Number of survivors/ number of animals tested at the dose of 40 mg/Kg; 2/6; assay type: functional
Mus musculus [4] = assay: Antitumor activity was evaluated against L1210 leukemia, injected intravenously at a dose 80 umol/kg; assay type: functional
Mus musculus [5] = assay: Number of survivors/ number of animals tested at the dose of 80 mg/Kg, iv; 0/6; assay type: functional
Mus musculus [6] = assay: Number of survivors/ number of animals tested at the dose of 125 mg/Kg; 6/6; assay type: functional
Mus musculus [7] = assay: Number of survivors/ number of animals tested at the dose of 210 mg/Kg; 3/6; assay type: functional
Mus musculus [8] = assay: Antitumor activity was evaluated against L1210 leukemia, injected intraperitoneally at a dose 210 umol/kg; assay type: functional
Mus musculus [9] = assay: Number of survivors/ number of animals tested at the dose of 40 mg/Kg, iv; 0/6; assay type: functional
Mus musculus [10] = assay: Number of survivors/ number of animals tested at the dose of 80 mg/Kg; 6/6; assay type: functional
Mus musculus [11] = assay: Number of survivors/ number of animals tested at the dose of 165 mg/Kg; 5/6; assay type: functional
L1210 [12] = assay: (§1) Antitumor activity was evaluated against L1210 leukemia, injected intraperitoneally at a dose 40 umol/kg; assay type: functional, Mus musculus
Mus musculus [13] = assay: Number of survivors/ number of animals tested at the dose of 210 mg/Kg; 0/6; assay type: functional
Mus musculus [14] = assay: Number of survivors/ number of animals tested at the dose of 125 mg/Kg, iv; 6/6; assay type: functional
Mus musculus [15] = assay: Number of survivors/ number of animals tested at the dose of 115 mg/Kg, ip; 6/6; assay type: functional
Mus musculus [16] = assay: Antitumor activity was evaluated against L1210 leukemia, injected intraperitoneally at a dose 295 umol/kg; assay type: functional
Mus musculus [17] = assay: Number of survivors/ number of animals tested at the dose of 80 mg/Kg, ip; 5/6; assay type: functional
Mus musculus [18] = assay: Number of survivors/ number of animals tested at the dose of 235 mg/Kg, iv; 5/6; assay type: functional
Mus musculus [19] = assay: Number of survivors/ number of animals tested at the dose of 235 mg/Kg, ip; 0/6; assay type: functional
Mus musculus [20] = assay: as §1; assay type: functional
Mus musculus [21] = assay: Number of survivors/ number of animals tested at the dose of 155 mg/Kg, iv; 6/6; assay type: functional
Mus musculus [22] = assay: Antitumor activity was evaluated against L1210 leukemia, injected intravenously at a dose 235 umol/kg; assay type: functional
Mus musculus [23] = assay: Number of survivors/ number of animals tested at the dose of 195 mg/Kg, iv; 5/6; assay type: functional
Mus musculus [24] = assay: Number of survivors/ number of animals tested at the dose of 40 mg/Kg, ip; 0/6; assay type: functional
Mus musculus [25] = assay: Number of survivors/ number of animals tested at the dose of 115 mg/Kg, iv; 6/6; assay type: functional
Mus musculus [26] = assay: Number of survivors/ number of animals tested at the dose of 155 mg/Kg, ip; 6/6; assay type: functional
Mus musculus [27] = assay: Number of survivors/ number of animals tested at the dose of 195 mg/Kg, ip; 5/6; assay type: functional
Mus musculus [28] = assay: (§2) Number of survivors/ number of animals tested at the dose of 20 mg/Kg, iv; 0/6; assay type: functional
Mus musculus [29] = assay: (§3) Number of survivors/ number of animals tested at the dose of 40 mg/Kg, iv; 6/6; assay type: functional
Mus musculus [30] = assay: Antitumor activity was evaluated against L1210 leukemia, injected intravenously at a dose umol/kg; assay type: functional
Mus musculus [31] = assay: Antitumor activity was evaluated against L1210 leukemia, injected intravenously at a dose umol/kg; infinity-50-100%survivals; assay type: functional, organism-based
Mus musculus [32] = assay: Number of survivors/ number of animals tested at the dose of 60 mg/Kg, iv; 4/6; assay type: functional
Mus musculus [33] = assay: Antitumor activity was evaluated against L1210 leukemia, injected intravenously at a dose umol/kg, survivors/6; assay type: functional
L1210 [34] = assay: Antitumor activity was evaluated against L1210 leukemia, injected intraperitoneally at a dose 95 umol/kg; infinity-50-100%survivals; assay type: functional, cell-based; conditions: Mus musculus
L1210 [35] = assay: Antitumor activity was evaluated against L1210 leukemia, injected intraperitoneally at a dose 120 umol/kg; assay type: functional, Mus musculus
L1210 [36] = assay: Number of survivors/ number of animals tested at the dose of 75 mg/Kg; 6/6; assay type: functional, Mus musculus
L1210 [37] = assay: Number of survivors/ number of animals tested at the dose of 95 mg/Kg; 3/6; assay type: functional, Mus musculus
L1210 [38] = assay: Number of survivors/ number of animals tested at the dose of 25 mg/Kg; 0/6; assay type: functional, Mus musculus
L1210 [39] = assay: Antitumor activity was evaluated against L1210 leukemia, injected intraperitoneally at a dose 50 umol/kg; infinity-50-100%survivals; assay type: functional, cell-based; conditions: Mus musculus
L1210 [40] = assay: Antitumor activity was evaluated against L1210 leukemia, injected intraperitoneally at a dose 75 umol/kg; infinity-50-100%survivals; assay type: functional, cell-based; conditions: Mus musculus
L1210 [41] = assay: Number of survivors/ number of animals tested at the dose of 50 mg/Kg; 6/6; assay type: functional, Mus musculus
L1210 [42] = assay: Antitumor activity was evaluated against L1210 leukemia, injected intraperitoneally at a dose 25 umol/kg; assay type: functional, Mus musculus
L1210 [43] = assay: Number of survivors/ number of animals tested at the dose of 125 mg/Kg; 0/6; assay type: functional, Mus musculus
Mus musculus [44] = assay: Antitumor activity was evaluated against L1210 leukemia, injected intravenously at a dose 40-250 umol/kg; assay type: functional
L1210 [45] = assay: Number of survivors/ number of animals tested at the dose of 60 mg/Kg, iv; 6/6; assay type: functional, Mus musculus
L1210 [46] = assay: as §2; assay type: functional, Mus musculus
Mus musculus [47] = assay: Antitumor activity was evaluated against L1210 leukemia, injected intravenously at a dose 20 umol/kg; assay type: functional
L1210 [48] = assay: as §3; assay type: functional, Mus musculus
L1210 [49] = assay: Number of survivors/ number of animals tested at the dose of 80 mg/Kg, iv; 1/6; assay type: functional, Mus musculus
Mus musculus [50] = assay: Antitumor activity was evaluated against L1210 leukemia, injected intravenously at a dose 120 umol/kg; assay type: functional
L1210 [51] = assay: Number of survivors/ number of animals tested at the dose of 120 mg/Kg, iv; 0/6; assay type: functional, Mus musculus
Mus musculus [52] = assay: Antitumor activity was evaluated against L1210 leukemia, injected intraperitoneally at a dose 80 umol/kg; infinity-50-100%survivals; assay type: functional, organism-based
Mus musculus [53] = assay: Antitumor activity was evaluated against L1210 leukemia, injected intravenously at a dose 115 umol/kg; infinity-50-100%survivals; assay type: functional, organism-based
Mus musculus [54] = assay: Antitumor activity was evaluated against L1210 leukemia, injected intravenously at a dose 155 umol/kg; infinity-50-100%survivals; assay type: functional, organism-based
Mus musculus [55] = assay: Antitumor activity was evaluated against L1210 leukemia, injected intraperitoneally at a dose 115 umol/kg; infinity-50-100%survivals; assay type: functional, organism-based
Mus musculus [56] = assay: Antitumor activity was evaluated against L1210 leukemia, injected intraperitoneally at a dose 195 umol/kg; infinity-50-100%survivals; assay type: functional, organism-based
Mus musculus [57] = assay: Antitumor activity was evaluated against L1210 leukemia, injected intraperitoneally at a dose 155 umol/kg; infinity-50-100%survivals; assay type: functional, organism-based
Mus musculus [58] = assay: Antitumor activity was evaluated against L1210 leukemia, injected intravenously at a dose 195 umol/kg; infinity-50-100%survivals; assay type: functional, organism-based
Mus musculus [59] = assay: Antitumor activity was evaluated against L1210 leukemia, injected intravenously at a dose 125 umol/kg; infinity-50-100%survivals; assay type: functional, organism-based
Mus musculus [60] = assay: Antitumor activity was evaluated against L1210 leukemia, injected intravenously at a dose 210 umol/kg; infinity-50-100%survivals; assay type: functional, organism-based
Mus musculus [61] = assay: Antitumor activity was evaluated against L1210 leukemia, injected intravenously at a dose 165 umol/kg; infinity-50-100%survivals; assay type: functional, organism-based
Mus musculus [62] = assay: Antitumor activity was evaluated against L1210 leukemia, injected intraperitoneally at a dose 125 umol/kg; infinity-50-100%survivals; assay type: functional, organism-based
Mus musculus [63] = assay: Antitumor activity was evaluated against L1210 leukemia, injected intraperitoneally at a dose 165 umol/kg; infinity-50-100%survivals; assay type: functional, organism-based

C[S+]([O-])CCN(N=O)C(=O)NCCCl.C[S+]([O-])CCNC(=O)N(CCCl)N=O (stereo unspecified) [listing 1 of 2 here]
T/C x100 (Mus musculus [1]): 170
Survivors (Mus musculus [2]): 6
Survivors (Mus musculus [3]): 2
T/C x100 (Mus musculus [4]): 270
Survivors (Mus musculus [5]): 0
Survivors (Mus musculus [6]): 6
Survivors (Mus musculus [7]): 3
T/C x100 (Mus musculus [8]): 295
Survivors (Mus musculus [9]): 0
Survivors (Mus musculus [10]): 6
Survivors (Mus musculus [11]): 5
T/C x100 (L1210 [12]): 300
Survivors (Mus musculus [13]): 0
Survivors (Mus musculus [14]): 6

CS(=O)(=O)CCN(N=O)C(=O)NCCCl.CS(=O)(=O)CCNC(=O)N(CCCl)N=O [listing 1 of 2 here]
T/C x100 (Mus musculus [1]): 190
Survivors (Mus musculus [15]): 6
T/C x100 (Mus musculus [4]): 230
Survivors (Mus musculus [5]): 0
T/C x100 (Mus musculus [16]): 410
Survivors (Mus musculus [17]): 5
Survivors (Mus musculus [18]): 5
Survivors (Mus musculus [19]): 0
T/C x100 (Mus musculus [20]): 190
Survivors (Mus musculus [21]): 6
T/C x100 (Mus musculus [22]): 290
Survivors (Mus musculus [9]): 0
Survivors (Mus musculus [23]): 5
Survivors (Mus musculus [24]): 0
Survivors (Mus musculus [25]): 6
Survivors (Mus musculus [26]): 6
Survivors (Mus musculus [27]): 5

C[S+]([O-])CCNC(=O)N(CCCl)N=O (stereo unspecified)
Survivors (Mus musculus [28]): 0
Survivors (Mus musculus [5]): 0
Survivors (Mus musculus [29]): 6
T/C x100 (Mus musculus [30]): 190
T/C x100 (Mus musculus [31]): infinity-50-100%survivals
Survivors (Mus musculus [32]): 4
T/C x100 (Mus musculus [33]): 190

O=NN(CCCl)C(=O)NCCSSCCN(N=O)C(=O)NCCCl.O=NN(CCSSCCN(N=O)C(=O)NCCCl)C(=O)NCCCl
T/C x100 (L1210 [34]): infinity-50-100%survivals
T/C x100 (L1210 [35]): 125
Survivors (L1210 [36]): 6
Survivors (L1210 [37]): 3
Survivors (L1210 [38]): 0
T/C x100 (L1210 [39]): infinity-50-100%survivals
T/C x100 (L1210 [40]): infinity-50-100%survivals
Survivors (L1210 [41]): 6
T/C x100 (L1210 [42]): 250
Survivors (L1210 [43]): 0

CS(=O)(=O)CCN(N=O)C(=O)NCCCl
T/C x100 (Mus musculus [44]): <125

CS(=O)(=O)CCNC(=O)N(CCCl)N=O
Survivors (L1210 [45]): 6
Survivors (L1210 [46]): 0
T/C x100 (Mus musculus [47]): 200
Survivors (L1210 [48]): 6
T/C x100 (Mus musculus [4]): 300
Survivors (L1210 [49]): 1
T/C x100 (Mus musculus [50]): 190
Survivors (L1210 [51]): 0

CS(=O)(=O)CCN(N=O)C(=O)NCCCl.CS(=O)(=O)CCNC(=O)N(CCCl)N=O [listing 2 of 2 here]
T/C x100 (Mus musculus [52]): infinity-50-100%survivals
T/C x100 (Mus musculus [53]): infinity-50-100%survivals
T/C x100 (Mus musculus [54]): infinity-50-100%survivals
T/C x100 (Mus musculus [55]): infinity-50-100%survivals
T/C x100 (Mus musculus [56]): infinity-50-100%survivals
T/C x100 (Mus musculus [57]): infinity-50-100%survivals
T/C x100 (Mus musculus [58]): infinity-50-100%survivals

C[S+]([O-])CCN(N=O)C(=O)NCCCl.C[S+]([O-])CCNC(=O)N(CCCl)N=O (stereo unspecified) [listing 2 of 2 here]
T/C x100 (Mus musculus [52]): infinity-50-100%survivals
T/C x100 (Mus musculus [59]): infinity-50-100%survivals
T/C x100 (Mus musculus [60]): infinity-50-100%survivals
T/C x100 (Mus musculus [61]): infinity-50-100%survivals
T/C x100 (Mus musculus [62]): infinity-50-100%survivals
T/C x100 (Mus musculus [63]): infinity-50-100%survivals

C[S+]([O-])CCN(N=O)C(=O)NCCCl (stereo unspecified)
T/C x100 (Mus musculus [44]): <125

Source: ChEMBL document CHEMBL1123050, “New cysteamine (2-chloroethyl)nitrosoureas. Synthesis and preliminary antitumor results” (1985)
